Among the data in PubChem BioAssay AID1918938 (Molecular Pharmacology Branch, DTP, NCI, 2023) are viability, T/C and IC50 values, retold here.

“And” between values parts separate entries of the source, which are not always exact repeats. Equal entries are not always repeated.

The assay relates to 556581-035-R-J1-PDC complex spheroid viability. Briefly: Anticancer human tumor 556581-035-R-J1-PDC patient-derived ovarian carcinoma cell line growth inhibition. The note with it: for viability, T/C: stronger effect = lower value; for IC50: curve of compound. An excerpt: Multicellular complex tumor spheroid response to LSD1 Inhibitor Iadademstat in combination with a variety of drugs and investigational agents in selected tumor cell lines
The current study was undertaken to assess response to LSD1 inhibitors in combination with standard-of-care drugs and investigational agents in solid tumor complex spheroid models as well as in the K-562 leukemia. Complex spheroids include a stromal component modeled by human endothelial cells (HUVEC) and fibroblasts modeled by human mesenchymal stem cells (MSCs). The concentration ranges selected for each drug and investigational agent were based upon clinically achievable concentrations if the clinical Cmax of the agent was known.
Compounds. The drugs and investigational agents used in this study are listed on Table 1. All of the agents used, including staurosporine (NSC755774) and gemcitabine (NSC613327), were obtained from the Developmental Therapeutics Program, NCI. FDA-approved anticancer drugs are available from the NCI at http://dtp.nci.nih.gov/branches/dscb/oncology_drugset_explanation.html. Drugs and investigational agents were >95% pure by proton nuclear magnetic resonance (NMR) and liquid chromatography/mass spectrometry (LC/MS). Stock solutions were prepared at 400x in DMSO, stored at -70 degrees C, and diluted in fresh medium prior to their use. The final concentration of DMSO in cell culture wells never exceeded 0.25% (v/v). The FDA-approved anticancer drug set is available from the Developmental Therapeutics Program at https://dtp.cancer.gov/organization/dscb/obtaining/available_plates.htm. All drugs and investigational agents were tested over a range starting from a high concentration at or near the clinical Cmax and decreasing in half-log increments. If the clinical Cmax for an agent had not been determined, the highest concentration tested was 10 microM.
Cell Lines. The patient-derived cancer cell (PDC) lines: 292921-168-R-J2-PDC, K24384-001-R-PDC, and 521955-158-R2-J5-PDC pancreatic carcinomas, 556581-035-R-J1 ovarian carcinoma, 324938-238-R-J1-PDC, 855422-203-R-J1-PDC and 883617-216-R-J1-PDC urothelial bladder carcinomas, 743489-274-T-PDC renal cell carcinoma, 138582-R-J1 Merkel cell tumor, K60290-347-R-J1 and K57222-313-R-J1-PDC glioblastomas, 653999-131-R-J2-PDC, LG0703-F948-PDC, and 349418-098-R-PDC non-small cell lung carcinomas, 885512-296-R-J2-PDC, 171881-019-R-J1-PDC breast carcinomas and 186277-243-T-J2-PDC and 233499-124-R-J2-PDC colon carcinomas were obtained from the NCI Patient-Derived Models Repository (PDMR, https://pdmr.cancer.gov). The established cell lines NCI/ADR-RES (RRID:CVCL_14520 and OVCAR-5 (RRID:CVCL_1628) ovarian carcinomas, 786-O (RRID:CVCL_1051) and A498 (RRID:CVCL_A498) renal cell carcinoma, NCI-H211 (ATCC, cat. CRL-5824; RRID:CVCL_1529), NCI-H196 (ATCC, cat. CRL-5823, RRID:CVCL_1509), SW 1271 (ATCC, cat. CRL-2177, RRID:CVCL_1716) and NCI-H1876 (ATCC, cat. CRL-5902, RRID:CVCL_1503) small cell lung carcinomas, MDA-MB-231 (RRID:CVCL_0062) and MDA-MB-468 (RRID:CVCL_0419)breast carcinomas (10-12). Pooled donor human umbilical vein endothelial cells (HUVEC, Lonza, cat. CC-2519) and human mesenchymal stem cells (hMSC, Lonza, cat. PT-2501) were purchased from Lonza (Walkersville, MD).
Cell Culture. All cells were maintained in an incubator at 37 degrees C and 5% CO2 with 95% humidity. The PDC lines were cultured according to standard operating procedures established by the NCI PDMR (https://pdmr.cancer.gov). Briefly all PDCs were thawed and cultured in Matrigel-coated flasks prepared with a working solution of 1X Ham's F-12 nutrient mix, without supplementation (Invitrogen, Waltham, MA, cat. 11765054), 100 U/mL penicillin-streptomycin (Invitrogen, cat. 15140122), and 2.5% Matrigel (Corning Inc., Corning, NY, cat. 354248) for the first three passages. […]
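Further: spheroids exposed to agents for seven days.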

For the compound `Cn1ncnc1C1c2n[nH]c(=O)c3cc(F)cc(c23)NC1c1ccc(F)cc1` (configuration not stated), the IC50 is over 100 nM. Further, the viability, T/C (compound 0.000316 µM) was 102% and 114%. Besides, the viability, T/C (compound 0.001 µM) is 118% and 97.2%. Under “compound 0.00316 µM”, the viability, T/C is 105% and 86.9%. In addition, the viability, T/C (compound 0.01 µM) is 108% and 86.5%. Also, under “compound 0.0316 µM”, the viability, T/C was 93.6% and 103%. For the same compound, where the note is “compound 0.1 µM”, the viability, T/C was 98.9% and 91.4%.

For the compound `NS(=O)(=O)OCC1CC(n2ccc3c(NC4CCc5ccccc54)ncnc32)CC1O` (configuration not stated), the half-maximal inhibitory concentration (IC50) is > 3000 nM and 407 nM. Also, the viability, T/C (compound 0.00949 µM) is 121% and 104%. Further, the viability, T/C (compound 0.03 µM) is 122% and 77%. In addition, the viability, T/C (compound 0.0949 µM) was 111% and 74%. Moreover, the viability, T/C (compound 0.3 µM) was 106% and 51.3%. For the same compound, the viability, T/C (compound 0.949 µM) was 91.9% and 37.8%. Further, the viability, T/C (compound 3 µM) was 56.7% and 38%.

On to `Nc1ccccc1NC(=O)c1ccc(CNC(=O)OCc2cccnc2)cc1`, for which the half-inhibitory concentration (IC50) is 133 nM and 97.8 nM. Further, the viability, T/C (compound 0.00949 µM) was 88.5% and 100%. Besides, the viability, T/C (compound 0.03 µM) is 82% and 76.7%. The viability, T/C (compound 0.0949 µM) is 56.3% and 50.2%. Moreover, where the note is “compound 0.3 µM”, the viability, T/C is 30.6% and 28.9%. Under “compound 0.949 µM”, the viability, T/C is 13.6% and 7.68%. In addition, under “compound 3 µM”, the viability, T/C was 1.18% and 0.51%.

On to `Nc1ccn(C2OC(CO)C(O)C2(F)F)c(=O)n1` (configuration not stated), for which the half-maximal inhibitory concentration (IC50) was 2.64 nM and 1.98 nM. In addition, the viability, T/C (compound 0.000949 µM) was 73.7% and 82.5%. Further, the viability, T/C (compound 0.003 µM) is 48.6% and 31.7%. For the setting “compound 0.00949 µM”, the viability, T/C is 36% and 23.9%. Moreover, the viability, T/C (compound 0.03 µM) is 36.7% and 26.2%. Besides, for the setting “compound 0.0949 µM”, the viability, T/C was 40.7% and 26.8%. The viability, T/C (compound 0.3 µM) is 35.3% and 23.3%.

For `Nc1ncn(C2CC(O)C(CO)O2)c(=O)n1` (configuration not stated), the IC50 was over 1000 nM. In addition, the viability, T/C (compound 0.00316 µM) is 98.7% and 115%. Further, the viability, T/C (compound 0.01 µM) was 102% and 100%. Moreover, the viability, T/C (compound 0.0316 µM) is 108% and 99.9%. Moreover, the viability, T/C (compound 0.1 µM) is 84.2% and 79.4%. For the same compound, the viability, T/C (compound 0.316 µM) was 88.6% and 107%. For the same compound, the viability, T/C (compound 1 µM) is 80.9% and 101%.

With `Nc1ncn(C2CC(O)C(CO)S2)c(=O)n1` (configuration not stated), the half-inhibitory concentration (IC50) was 184 nM and 48 nM. For the setting “compound 0.000949 µM”, the viability, T/C is 92.4% and 104%. Further, the viability, T/C (compound 0.003 µM) is 110% and 102%. The viability, T/C (compound 0.00949 µM) is 94.5% and 81.4%. The viability, T/C (compound 0.03 µM) was 75.4% and 63.8%. Also, where the note is “compound 0.0949 µM”, the viability, T/C was 56.8% and 32.5%. The viability, T/C (compound 0.3 µM) was 45.3% and 17.8%.

For `O=C(C=Cc1cccc(S(=O)(=O)Nc2ccccc2)c1)NO`, the half-inhibitory concentration (IC50) was 111 nM and 68.4 nM. For the same compound, the viability, T/C (compound 0.00949 µM) is 88.8% and 89.7%. For the same compound, the viability, T/C (compound 0.03 µM) is 77.9% and 83.8%. Besides, the viability, T/C (compound 0.0949 µM) is 54.2% and 35.2%. Also, the viability, T/C (compound 0.3 µM) is 23.9% and 15.3%. For the same compound, the viability, T/C (compound 0.949 µM) was 1.68% and 0.7%. Besides, the viability, T/C (compound 3 µM) is 0.32% and 3.39%.

On to `O=C(C=Cn1cnc(-c2cc(C(F)(F)F)cc(C(F)(F)F)c2)n1)NNc1cnccn1`, for which the half-inhibitory concentration (IC50) was 329 nM and 67.6 nM. Besides, the viability, T/C (compound 0.00316 µM) was 84.8%. Also, the viability, T/C (compound 0.01 µM) was 82.9% and 87.8%. Besides, the viability, T/C (compound 0.0316 µM) was 83.4% and 74%. Under “compound 0.1 µM”, the viability, T/C was 68.8% and 37.2%. Further, the viability, T/C (compound 1 µM) was 15.9% and 3.46%.

Consider `O=C(c1cc(Cc2n[nH]c(=O)c3ccccc23)ccc1F)N1CCN(C(=O)C2CC2)CC1`, for which the IC50 was over 10000 nM. Also, the viability, T/C (compound 0.0316 µM) was 95.3% and 96.8%. Besides, the viability, T/C (compound 0.1 µM) was 94.3% and 94.5%. In addition, the viability, T/C (compound 0.316 µM) is 98.2% and 89.4%. Also, the viability, T/C (compound 1 µM) is 98.1% and 89.3%. Moreover, the viability, T/C (compound 3.16 µM) is 87.5% and 78.2%. For the setting “compound 10 µM”, the viability, T/C is 75.2% and 64.5%.

What is called viability, T/C is the ratio of treated to control. For orientation: IC50 means the point on the concentration scale where inhibition reaches its midpoint.
